Here are results for 25 molecules from patent publication US12497405B2, “Bicyclic heterocycle compounds methods of use thereof for the treatment of herpes viruses” (Merck Sharp & Dohme LLC, priority 2019, dated 2025).

Read-outs that look alike come from different tables or passages of the source.

The subject of one experiment is CMV. As to the kind of experiment: Viral qPCR assay, CMV. The format is cell-based. To be noted: infected cells, viral genome copies by qPCR normalized to PPIA, read-out: CMV Cell EC50. The procedure, abridged: (§1)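 Compound is titrated in ten 3-fold steps onto virus-infected MRC5, Vero or MeWo cells, which replicate for about 72 hrs. After detergent/proteinase K lysis, qPCR measures viral and PPIA copy numbers, and the normalized % effect gives an EC50.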
(In general: In qPCR the cycle at which signal appears reflects the starting amount.)

A further experiment relates to HSV1. Nature of the experiment: Viral qPCR assay, HSV1. The conditions noted are these: infected cells, viral genome copies by qPCR normalized to PPIA, read-out: HSV1 Cell EC50. The format is cell-based. The method in brief: as §1
For experiment [1], the target named is varicella zoster virus DNA polymerase (Varicella-zoster virus (strain Dumas) (HHV-3) (Human herpesvirus 3), UniProt P09252). Nature of the experiment: VZV polymerase assay (AlphaLISA). The format is biochemical. The conditions noted are these: VZV polymerase 0.4 nM, 30 min pre-incubation, 60 minute at 37° C. The protocol: (§2) Human cytomegalovirus and varicella zoster virus DNA polymerases were expressed via baculovirus vector in SF21 cells and purified. Heterodimeric nucleic acid substrate used in the herpesvirus polymerase reactions were generated by annealing a 59-mer template to a 17-mer digoxigenin-labeled primer. Polymerase (HCMV final concentration of 0.2 nM; VZV final concentration of 0.4 nM) was combined with an inhibitor compound or DMSO in assay buffer (10 mM HEPES, pH 7.5, 25 mM KCl, 25 mM NaCl, 5 mM MgCl2, 5% glycerol, 0.67 mg/ml bovine serum albumin, and 1 mM tris(2-carboxyethyl)phosphine)), and this mixture was pre-incubated for 30 minutes at room temperature in 384-well microtiter plates. The polymerization reaction was initiated by the addition of template/primer substrate (final concentration: 1.6 nM), and dNTPs (final concentration: 24 nM dCTP, 24 nMdGTP, 16 nM dATP, 16 nM dTTP, and 0.8 nM biotin-dUTP). After a 60 minute incubation period at 37° C., the reactions were terminated using quench buffer (25 mM HEPES pH 7.5, 100 mM NaCl, 0.25% Tween-20, 12 mM EDTA, and 1 mg/ml bovine serum albumin). Incorporation of biotinylated UTP was detected with 2.5-5 μg/mL anti-DIG AlphaLISA acceptor beads and 5-10 μg/mL streptavidin AlphaLISA donor beads (PerkinElmer). Compound effects were normalized to the window defined by the controls (DMSO only and pre-quenched wells), and were fit using a 4-parameter algorithm to report an IC50.

In a further experiment the test system is HSV2. Nature of the experiment: Viral qPCR assay, HSV2. To be noted: infected cells, viral genome copies by qPCR normalized to PPIA, read-out: HSV2 Cell EC50. The format is cell-based. The method in brief: as §1
The target of experiment [2] is Human cytomegalovirus DNA polymerase (Human cytomegalovirus (strain AD169) (HHV-5) (Human herpesvirus 5), UniProt P08546). Nature of the experiment: CMV polymerase assay (AlphaLISA). The format is biochemical. The conditions noted are these: HCMV polymerase 0.2 nM, 30 min pre-incubation, 60 minute at 37° C. How it is done: as §2

For orientation: EC50 means the concentration at which the effect is half-maximal. Broadly, the IC50 is the concentration that inhibits the measured activity by half. Low readings indicate inhibition by little substance, high ones a need for much substance. With `COc1nc2cc(-c3cnco3)c(O[C@H]3CCN4C(=O)OC[C@@H]4C3)cc2c(=O)n1Cc1ccc(C#N)cc1` [Example 9], the figures for the EC50 in the experiment on CMV (~72 hrs), with HSV1 (~72 hrs) and in the experiment on HSV2 (~72 hrs) were 0.035 µM, 0.02 µM and 0.013 µM, respectively. The IC50 in experiment [1] and in experiment [2] was 0.00044 µM in each case.
As for `N#Cc1ccc(Cn2c(=O)[nH]c3cc(-c4cnco4)c(O[C@H]4CCN5C(=O)OC[C@@H]5C4)cc3c2=O)cc1` [Example 10], the concentration for a half-maximal effect (EC50) turned out to be 0.07 µM in the experiment with CMV (~72 hrs), 0.109 µM with HSV1 (~72 hrs) and 0.068 µM with HSV2 (~72 hrs). The half-maximal inhibitory concentration (IC50) in experiment [1] is 0.00028 µM; in experiment [2], 0.00024 µM.
The corresponding values for `Cc1nc2cc(-c3ccn(C(F)F)n3)c(O[C@H]3CCN4C(=O)OC[C@@H]4C3)cc2c(=O)n1Cc1ccc(C#N)cc1` [Example 11] are 0.054 µM, 0.051 µM, 0.035 µM, 0.0025 µM and 0.00055 µM.
As to `Cc1nc2cc(-c3cn(C(F)F)nn3)c(O[C@H]3CCN4C(=O)OC[C@@H]4C3)cc2c(=O)n1Cc1ccc(Cl)cc1` [Example 12], the EC50 in the experiment on CMV (~72 hrs) turned out to be 0.112 µM; in the experiment on HSV1 (~72 hrs), 0.073 µM; in the experiment with HSV2 (~72 hrs), 0.061 µM. The half-maximal inhibitory concentration (IC50) in experiment [1] and in experiment [2] was 0.00047 µM in each case.
In the case of `Cc1nc2cc(-c3ccn(C(F)F)n3)c(O[C@H]3CCN4C(=O)OC[C@@H]4C3)cc2c(=O)n1Cc1ccc(Cl)cc1` [Example 13], the concentration giving a half-maximal response (EC50) with CMV (~72 hrs) was determined as 0.049 µM; in the experiment on HSV1 (~72 hrs), 0.037 µM; in the experiment with HSV2 (~72 hrs), 0.038 µM. Also, the half-maximal inhibitory concentration (IC50) in experiment [1] came to 0.0035 µM; in experiment [2], 0.001 µM.
The matching figures for `COc1ccc(-c2cc3nc(C)n(Cc4ccc(Cl)cc4)c(=O)c3cc2O[C@H]2CCN3C(=O)OC[C@@H]3C2)nn1` [Example 14]: 0.28 µM, 0.374 µM, 0.268 µM, 0.014 µM and 0.013 µM.
Regarding `CC(=O)N1CCC(Oc2ccc3ccn(Cc4ccc(Cl)cc4)c(=O)c3c2)CC1` [Example 22], the concentration giving a half-maximal response (EC50) is 4.24 µM in the experiment on CMV (Human betaherpesvirus 5, 72 h); 5.63 µM with HSV1 (Human alphaherpesvirus 1, 72 h); 4.28 µM with HSV2 (Human alphaherpesvirus 2, 72 h). In addition, the concentration for half-maximal inhibition (IC50) in experiment [1] turned out to be 0.071 µM; in experiment [2], 0.386 µM.
The corresponding values for `O=C1OC[C@@H]2C[C@@H](Oc3ccc4ccn(Cc5ccc(Cl)cc5)c(=O)c4c3)CCN12` [Example 23] are 0.482 µM, 1.32 µM, 0.961 µM, 0.026 µM and 0.04 µM.
As to `O=C1OC[C@@H]2C[C@@H](Oc3ccc4ncn(Cc5ccc(Cl)cc5)c(=O)c4c3)CCN12` [Example 24], the EC50 in the experiment on CMV (Human betaherpesvirus 5, 72 h) turned out to be 0.216 µM; in the experiment on HSV1 (Human alphaherpesvirus 1, 72 h), 0.501 µM; in the experiment on HSV2 (Human alphaherpesvirus 2, 72 h) it was 0.342 µM. Further, the IC50 in experiment [1] was determined as 0.035 µM; in experiment [2] it was 0.027 µM.
The corresponding values for `O=C1OC[C@@H]2C[C@@H](Oc3cnc4ccn(Cc5ccc(Cl)cc5)c(=O)c4c3)CCN12` [Example 25] are 0.569 µM, 1.31 µM, 0.73 µM, 0.055 µM and 0.076 µM.
As for `Cc1cc2ccn(Cc3ccc(Cl)cc3)c(=O)c2cc1O[C@H]1CCN2C(=O)OC[C@@H]2C1` [Example 26], the concentration for a half-maximal effect (EC50) in the experiment with CMV (Human betaherpesvirus 5, 72 h) is 0.298 µM; in the experiment on HSV1 (Human alphaherpesvirus 1, 72 h), 0.673 µM; in the experiment with HSV2 (Human alphaherpesvirus 2, 72 h), 0.356 µM. Also, the IC50 in experiment [1] came out at 0.018 µM; in experiment [2], 0.013 µM.
The matching figures for `O=C1OC[C@@H]2C[C@@H](Oc3cc4c(=O)n(Cc5ccc(Cl)cc5)ccc4cc3-c3cnn(C(F)F)c3)CCN12` [Example 27]: 0.114 µM, 0.124 µM, 0.059 µM, 0.0059 µM and 0.0053 µM.
Turning to `O=C1OC[C@@H]2C[C@@H](Oc3cnc4ncn(Cc5ccc(Cl)cc5)c(=O)c4c3)CCN12` [Example 28], the concentration for a half-maximal effect (EC50) in the experiment on CMV (Human betaherpesvirus 5, 72 h) came to 0.5 µM; in the experiment on HSV1 (Human alphaherpesvirus 1, 72 h) it was 1.25 µM; in the experiment with HSV2 (Human alphaherpesvirus 2, 72 h), 0.884 µM. Also, the figures for the half-maximal inhibitory concentration (IC50) in experiment [1] and in experiment [2] were 0.06 µM and 0.048 µM, respectively.
As for `O=C1OC[C@@H]2C[C@@H](Oc3cc4c(=O)n(Cc5ccc(Cl)cc5)ccc4nc3-c3cnn(C(F)F)c3)CCN12` [Example 31], the EC50 is 0.101 µM in the experiment with CMV (Human betaherpesvirus 5, 72 h); 0.139 µM in the experiment with HSV1 (Human alphaherpesvirus 1, 72 h); 0.046 µM in the experiment with HSV2 (Human alphaherpesvirus 2, 72 h). The results for the IC50 in experiment [1] and in experiment [2] were 0.0021 µM and 0.003 µM, respectively.
The matching figures for `CC(C)(N)Cc1cc2ccn(Cc3ccc(Cl)cc3)c(=O)c2cc1O[C@H]1CCN2C(=O)OC[C@@H]2C1` [Example 32]: 0.392 µM, 0.772 µM, 0.402 µM, 0.033 µM and 0.015 µM.
The corresponding values for `CC(C)(O)Cc1cc2ccn(Cc3ccc(Cl)cc3)c(=O)c2cc1O[C@H]1CCN2C(=O)OC[C@@H]2C1` [Example 34] are 0.074 µM, 0.11 µM, 0.081 µM, 0.0014 µM and 0.0021 µM.
The corresponding values for `O=C1OC[C@@H]2C[C@@H](Oc3cc4c(=O)n(Cc5ccc(Cl)cc5)cnc4nc3-c3cnn(C(F)F)c3)CCN12` [Example 36] are 0.037 µM, 0.049 µM, 0.028 µM, 0.0015 µM and 0.0019 µM.
On to `O=C1OC[C@@H]2C[C@@H](Oc3cc4c(=O)n(Cc5ccc(Cl)cc5)ccc4nc3-c3cnco3)CCN12` [Example 38], for which the EC50 in the experiment with CMV (Human betaherpesvirus 5, 72 h) stood at 0.024 µM; with HSV1 (Human alphaherpesvirus 1, 72 h) it was 0.048 µM; in the experiment with HSV2 (Human alphaherpesvirus 2, 72 h), 0.028 µM. Besides, the figures for the IC50 in experiment [1] and in experiment [2] were 0.00033 µM and 0.0011 µM, respectively.
Turning to `COc1nc2ccn(Cc3ccc(Cl)cc3)c(=O)c2cc1O[C@H]1CCN2C(=O)OC[C@@H]2C1` [Example 39], the concentration for a half-maximal effect (EC50) in the experiment with CMV (Human betaherpesvirus 5, 72 h) is 0.52 µM; with HSV1 (Human alphaherpesvirus 1, 72 h), 1.34 µM; in the experiment on HSV2 (Human alphaherpesvirus 2, 72 h), 0.952 µM. The IC50 in experiment [1] is 0.041 µM; in experiment [2], 0.028 µM.
Take `Cc1nc2ccc(O[C@H]3CCN4C(=O)OC[C@@H]4C3)cc2c(=O)n1Cc1ccc(Cl)cc1` [Example 40]: the EC50 with CMV (Human betaherpesvirus 5, 72 h) turned out to be 0.157 µM; in the experiment with HSV1 (Human alphaherpesvirus 1, 72 h) it was 0.386 µM; in the experiment on HSV2 (Human alphaherpesvirus 2, 72 h), 0.304 µM. In addition, the IC50 in experiment [1] came out at 0.017 µM; in experiment [2] it was 0.011 µM.
In the case of `N#Cc1cc2ncn(Cc3ccc(Cl)cc3)c(=O)c2cc1O[C@H]1CCN2C(=O)OC[C@@H]2C1` [Example 41], the concentration giving a half-maximal response (EC50) is 0.077 µM with CMV (Human betaherpesvirus 5, 72 h); 0.131 µM in the experiment with HSV1 (Human alphaherpesvirus 1, 72 h); 0.075 µM in the experiment on HSV2 (Human alphaherpesvirus 2, 72 h). In addition, the 50% inhibitory concentration (IC50) in experiment [1] was determined as 0.0011 µM; in experiment [2] it was 0.0027 µM.
Regarding `O=C1OC[C@@H]2C[C@@H](Oc3cc(-c4cnco4)c4ncn(Cc5ccc(Cl)cc5)c(=O)c4c3)CCN12` [Example 42], the 50% effective concentration (EC50) in the experiment with CMV (Human betaherpesvirus 5, 72 h) stood at 0.181 µM; with HSV1 (Human alphaherpesvirus 1, 72 h), 0.233 µM; in the experiment on HSV2 (Human alphaherpesvirus 2, 72 h), 0.092 µM. In addition, the results for the 50% inhibitory concentration (IC50) in experiment [1] and in experiment [2] were 0.013 µM and 0.021 µM, respectively.
`CC(C)(O)Cc1nc2ncn(Cc3ccc(Cl)cc3)c(=O)c2cc1O[C@H]1CCN2C(=O)OC[C@@H]2C1` [Example 45]: the EC50 in the experiment on CMV (Human betaherpesvirus 5, 72 h) was determined as 0.269 µM; with HSV1 (Human alphaherpesvirus 1, 72 h) it was 0.268 µM; in the experiment on HSV2 (Human alphaherpesvirus 2, 72 h), 0.309 µM. For the same molecule, the IC50 in experiment [1] stood at 0.025 µM; in experiment [2], 0.011 µM.
The matching figures for `O=C1OC[C@@H]2C[C@@H](Oc3cc(CO)c4ncn(Cc5ccc(Cl)cc5)c(=O)c4c3)CCN12` [Example 46]: 0.174 µM, 0.423 µM, 0.334 µM, 0.02 µM and 0.024 µM.
The matching figures for `CC(C)(O)Cc1cc(O[C@H]2CCN3C(=O)OC[C@@H]3C2)cc2c(=O)n(Cc3ccc(Cl)cc3)cnc12` [Example 48]: 0.273 µM, 0.701 µM, 0.645 µM, 0.037 µM and 0.042 µM.
